*1 amine or outer side, *2 acyl side, *3 side chain or, on linkers, in order; H or OH if unused. Where a SMILES comes first, the peptide text is derived from it. Bridges are numbered along the chain shown (N, C = ends). [ ]: non-standard residue; d: D form. The star is where a group is joined. NMeAbu(3,3-F2-piperidino) = CN[C@@H](CCN1CCCC(F)(F)C1)C(=O)O; NMeAbu(4-morpholino) = CN[C@@H](CCN1CCOCC1)C(=O)O; X10 = CN([C@@H](CCN1CCC(F)(F)CC1)C(=O)[*:2])[*:1]; NMeF = CN[C@@H](Cc1ccccc1)C(=O)O; NMeL = CN[C@@H](CC(C)C)C(=O)O; NMeV = CN[C@H](C(=O)O)C(C)C; NMeA = CN[C@@H](C)C(=O)O; Piperidide = C1CCN(*)CC1; NBuGly = CCCCNCC(=O)O; Isopentyl = CC(C)CC*; Sar = CNCC(=O)O; tBu = CC(C)(C)*

The values that follow come from US20230096766A1, “AMINO ACID HAVING FUNCTIONAL GROUP CAPABLE OF INTERMOLECULAR HYDROGEN BONDING, PEPTIDE COMPOUND CONTAINING SAME AND METHOD FOR PRODUCTION THEREOF” (Chugai Seiyaku Kabushiki Kaisha, priority 2018, published 2023).

A short description of this series: in vitro. To be noted: human, Caco-2, Caco-2.
In general, Papp refers to a coefficient for how fast a substance crosses the barrier. As for `CC(C)C[C@@H]1NC(=O)[C@H](C)N(C)C(=O)C[C@@H](C(=O)N2CCCCC2)NC(=O)[C@H](C(C)C)N(C)C(=O)CN(C)C(=O)[C@H]([C@@H](C)O)NC(=O)[C@H](CCN2CCCC(F)(F)C2)N(C)C(=O)[C@H](Cc2ccccc2)N(C)C(=O)[C@H](CC(C)C)NC(=O)[C@H](Cc2ccccc2)N(C)C(=O)[C@H](CC(C)C)N(C)C1=O` [pd391] ([NMeA]L[NMeL][NMeF]L[NMeF][NMeAbu(3,3-F2-piperidino)]T[Sar][NMeV]D-Piperidide; lactam N-11), the Papp came out at 2.4 ×10⁻⁶ cm/s.
In turn, `CCCCN1CC(=O)N(C)[C@@H](CCN2CCCC(F)(F)C2)C(=O)N[C@H](C(=O)N2CCCCC2)CC(=O)N(C)[C@@H](C)C(=O)N[C@@H](CC(C)C)C(=O)N(C)[C@@H](CC(C)C)C(=O)N(C)[C@@H](Cc2ccccc2)C(=O)N[C@@H](CC(C)C)C(=O)N(C)[C@@H](Cc2ccccc2)C(=O)N(C)[C@@H](C)C(=O)N[C@@H]([C@@H](C)O)C1=O` [pd392] ([NMeA]L[NMeL][NMeF]L[NMeF][NMeA]T[NBuGly][NMeAbu(3,3-F2-piperidino)]D-Piperidide; lactam N-11) registered a Papp of 3.5 ×10⁻⁶ cm/s.
In turn, `CC(C)CCOC[C@@H]1NC(=O)[C@H](CCN2CCCC(F)(F)C2)N(C)C(=O)[C@H](Cc2ccccc2)N(C)C(=O)CN(C)C(=O)[C@H]([C@@H](C)O)NC(=O)[C@H](CC(C)C)N(C)C(=O)[C@H](CC(C)C)NC(=O)[C@H](Cc2ccccc2)N(C)C(=O)CN(C)C(=O)C[C@@H](C(=O)N2CCCCC2)NC(=O)[C@H](CC(C)C)N(C)C1=O` [pd393] ([Sar][NMeF]L[NMeL]T[Sar][NMeF][NMeAbu(3,3-F2-piperidino)]S(Isopentyl)[NMeL]D-Piperidide; lactam N-11) returned a Papp of 2.8 ×10⁻⁶ cm/s. The Papp values of the last two compounds are within 1.5-fold of each other.
Regarding `CCCCN1CC(=O)N(C)[C@@H](CC(C)C)C(=O)N[C@@H](CC(C)C)C(=O)N(C)[C@@H](Cc2ccccc2)C(=O)N(C)[C@@H](C)C(=O)N[C@H](C(=O)N2CCCCC2)CC(=O)N[C@H](C(C)C)C(=O)N(C)[C@@H](Cc2ccccc2)C(=O)N[C@@H](CC(C)C)C(=O)N(C)[C@@H](CCN2CCC(F)(F)CC2)C(=O)N[C@@H]([C@@H](C)O)C1=O` [pd394] ([dV][NMeF]L[X10]T[NBuGly][NMeL]L[NMeF][NMeA]D-Piperidide; lactam N-11), the Papp came out at 1.8 ×10⁻⁶ cm/s.
With `CCCCN1CC(=O)N(C)[C@@H](Cc2ccccc2)C(=O)N[C@@H](CC(C)C)C(=O)N(C)[C@@H](CC(C)C)C(=O)N[C@@H]([C@@H](C)O)C(=O)N(C)CC(=O)N(C)[C@@H](Cc2ccccc2)C(=O)N(C)[C@@H](CCN2CCC(F)(F)CC2)C(=O)N[C@@H](CC(C)C)C(=O)N(C)[C@@H](C(C)C)C(=O)N[C@H](C(=O)N2CCCCC2)CC1=O` [pd395] ([NBuGly][NMeF]L[NMeL]T[Sar][NMeF][X10]L[NMeV]D-Piperidide; lactam N-11) the figure was 1.7 ×10⁻⁶ cm/s; with `CCCCN1CC(=O)N(C)[C@@H](CC(C)C)C(=O)N[C@@H](COC(C)(C)C)C(=O)N(C)[C@@H](Cc2ccccc2)C(=O)N(C)[C@@H](C(C)C)C(=O)N[C@H](C(=O)N2CCCCC2)CC(=O)N[C@H](CC(C)C)C(=O)N(C)[C@@H](Cc2ccccc2)C(=O)N[C@@H](CC(C)C)C(=O)N(C)[C@@H](CCN2CCOCC2)C(=O)N[C@@H]([C@@H](C)O)C1=O` [pd452] ([dL][NMeF]L[NMeAbu(4-morpholino)]T[NBuGly][NMeL]S(tBu)[NMeF][NMeV]D-Piperidide; lactam N-11), 1.3 ×10⁻⁶ cm/s; with `CCCCN1CC(=O)N(C)[C@@H](C(C)C)C(=O)N[C@H](C(=O)N2CCCCC2)CC(=O)N(C)[C@@H](C)C(=O)N[C@@H](CC(C)C)C(=O)N(C)[C@@H](CC(C)C)C(=O)N(C)[C@@H](Cc2ccccc2)C(=O)N[C@@H](CC(C)C)C(=O)N(C)[C@@H](Cc2ccccc2)C(=O)N(C)[C@@H](CCN2CCOCC2)C(=O)N[C@@H]([C@@H](C)O)C1=O` [pd453] ([NMeA]L[NMeL][NMeF]L[NMeF][NMeAbu(4-morpholino)]T[NBuGly][NMeV]D-Piperidide; lactam N-11), 2.3 ×10⁻⁶ cm/s.
